10 compounds from patent US20240246968A1, “SMALL MOLECULE INHIBITORS OF KRAS G12C MUTANT” (Merck Sharp & Dohme LLC, priority 2021, published 2024) can be followed below.

Experiment [1] has as its target T1, interaction between recombinant K-Ras4B G12C mutant protein and cRAF RAS-binding domain (cRAF-RBD) (Homo sapiens, UniProt P01116, G12C).
T1 construct: made in house; host or cells: E. coli
In words: Inhibitory activity on interaction between KRAS G12C and cRAF (Alpha technology). Type of experiment: biochemical. Conditions: GMPPNP-bound KRAS G12C incubated with compound at 25° C. for 1 hour, then cRAF-RBD; Alpha signal. Here is the method:
Interaction between recombinant K-Ras4B G12C mutant protein (amino acids 1-169, SEQ ID NO:2) and cRAF RAS-binding domain (cRAF-RBD, amino acids 50-132, Jena Biosciences GmbH) was measured using Alpha technology (PerkinElmer Inc.).
Recombinant KRAS G12C protein with an N-terminal His-tag was expressed in E. coli and purified by affinity chromatography. To prepare GTP-bound form and GDP-bound form of KRAS G12C protein. 50 μM KRAS G12C protein was incubated with 1 mM GMPPNP (Guanosine-5′-[(β,γ)-imido]triphosphate. Tetralithium salt)(Jena Bioscience GmbH) and 1 mM GDP, respectively, in a loading buffer (20 mM Tris-HCl (pH 7.5), 50 mM NaCl, 1 mM DTT and 2.5 mM EDTA) for 1 hour on ice. After the incubation, MgCl2 was added to a final concentration of 10 mM, followed by incubation at room temperature for 30 minutes. The mixture was allowed to pass through a NAP-5 column to remove free nucleotides and purified, and the resultant nucleotide-bound KRAS G12C protein was used for compound evaluation.
For the measurement of the inhibitory activity of compounds on interaction between KRAS G12C and cRAF-RBD, GMPPNP-bound KRAS G12C protein was incubated with various concentrations of compound in a reaction buffer (20 mM Tris-HCl (pH 7.5), 100 mM NaCl, 1 mM MgCl2, 1 mM TCEP. 0.1% Tween 20) at 25° C. for 1 hour. After the incubation, recombinant cRAF-RBD and Alpha detection reagents were added and incubated at room temperature for 1.5 hours for binding. Interaction of KRAS G12C and cRAF-RBD was monitored by measuring Alpha signal. Inhibition % was calculated using the signal from the reaction without test compound (DMSO control) as 0% inhibition and the signal from the reaction using GDP-bound KRAS G12C in place of GMPPNP-bound KRAS G12C as 100% inhibition. IC50 values were calculated from dose titration curve using curve fitting by XLfit software (IDBS). The following tables show the results.

For the next experiment, the system named is MIA PaCa-2 cells. In words: Growth inhibition activity on KRAS-G12C mutant cell line (MIA PaCa-2), CellTiter-Glo 3D. Type of experiment: cell-based, human. To be noted: MIA PaCa-2, 3-day culture with compound. How it is done: MIA PaCa-2 cells (given by Sumitomo Dainippon Pharma Co., Ltd.), which are a KRAS-G12C mutant human pancreas cancer cell line, were suspended in a 10% fetal bovine serum-containing RPMI1640 medium (manufactured by Fujifilm Wako Pure Chemical Corporation.). The cell suspension was seeded into each well of a 384-well U bottom microplate and cultured in an incubator containing 5% CO2 gas at 37° C. for 1 day. The compounds obtained in the “Preparation of Compounds” section were used as test compounds and were dissolved in DMSO, respectively, and each test compound was diluted with DMSO to give a concentration 500 times the final concentration. The resultant solution of the test compound in DMSO was diluted with the medium used for suspending cells and added to each well of the cell-culture plate to give a DMSO final concentration of 0.2%, followed by culture in an incubator containing 5% CO2 gas at 37° C. for another 3 days. The cell count after 3-day culture in the presence of the test compound was measured using CellTiter-Glo 3D Reagent (manufactured by Promega Corporation). All wells were added with CellTiter-Glo 3D Reagent and mixed for 10 minutes. 30 minutes after mixing, luminescence was measured by a plate reader. The growth inhibition rate was calculated from the following equation, and the concentration of the test compound at which 50/o inhibition was achieved (IC50 (nM)) was determined. The following tables show the results.
[formula] • T: the emission intensity in a well into which a test compound was added. • C: the emission intensity in a well into which a test compound was not added.
(ATP-based viability assays read luminescence as a measure of living cells.)

Experiment [2] addresses Gppcp-bound recombinant K-Ras4B G12C mutant protein (amino acids 1-169, C51S/C80L/C118S) (Homo sapiens, UniProt P01116, C118S/C51S/C80L/G12C). The experiment can be described thus: KRASG12C binding assay (LC-MS, compound binding rate). To be noted: test compound final concentration 0.5 μM, 25° C., 1 hour. How it is done: As test compounds for the KRASG12C binding assay, the compounds obtained in the “Preparation of Compounds” section were used. Sample solutions each containing a test compound were prepared in the form of a 10 mM DMSO solution.
Gppcp-bound recombinant K-Ras4B G12C mutant protein (amino acids 1-169, C51S/C80L/C118S, SEQ ID NO:1) was diluted with a buffer (1×TBS, 0.1 mM TCEP, 0.25 mM MgCl2, 50 μM Gppcp) to prepare a 50 nM protein solution. K-Ras4B is the major splicing variant of K-Ras. Amino acid sequence of residues 1 to 150 including the compounds' binding region of K-Ras4B is exactly same as that of K-Ras4A, the other splicing variant (Oncotarget. 2016 Jul. 19; 7(29): 46717-46733). A sample solution containing 10 mM test compound was diluted ten-fold with DMSO to make a 1 mM sample solution, and then diluted twenty-fold with DMSO to make a 50 μM sample solution. 1 μL of a 50 μM sample solution was added to 100 μL of a 50 nM protein solution to adjust the final concentration of a test compound to be 0.5 μM in the mixture. The mixtures were stored in an incubator at 25° C. for 1 hour, and 10 μL of a 1×TBS solution containing 2% formic acid was added to stop the reaction, followed by LC-MS measurement. LC-MS measurement was performed using Xevo G2-S Q-Tof manufactured by Waters, and reverse-phase chromatography was performed with a desalting column. A mass spectrum of positive ions was obtained by electrospray. For a mass spectrum, a spectrum of polyvalent ions was collectively converted to a molecular weight by using OpenLynx software by the MaxEnt technique, and a compound binding rate was calculated from the ratio of the signal intensity of a peak that corresponds to the molecular weight of the protein to the signal intensity of a peak that corresponds to the molecular weight of the protein conjugated with the compound.
The binding assay of the test compounds was conducted at a final concentration of 0.5 μM. A binding rate of 80% or more is rated “A”, a binding rate of 60% or more and less than 80% is rated “B”, a binding rate of 40% or more and less than 60% is rated “C”, a binding rate of 20% or more and less than 40% is rated “D”, and a binding rate of less than 20% is rated “E”. N.D.=not determined. Binding rate % is the ratio of KRAS signal intensity at the molecular weight of one molecule adduct to the sum of all the KRAS signal intensity (unbound form and adducts) in mass spectrum. Thus, binding rate 100% means that only the one molecule adduct was observed without any unbound KRAS. The following tables show the results.

In the case of `Cc1nc2cc(-c3cccn4c(C(=O)c5cc(F)c(NC(=O)/C=C/CN[C@H]6CC[C@@H](F)CC6)c(F)c5)ccc34)c(C(F)(F)F)cc2n1C` [Example 81], the IC50 (usually the concentration at which inhibition is half-maximal) was found to be 70 nM in experiment [1] and 71 nM in the experiment with MIA PaCa-2 cells (Homo sapiens, MIA PaCa-2, 72 h). For the same compound, the binding rate result in experiment [2] is listed as “A (A binding rate of 80% or more is rated “A”)”.

On to `Cc1cc2c(nc([C@@H](C)O)n2C)c(Cl)c1-c1cccn2c(C(=O)c3cc(F)c(NC(=O)/C=C/CNC(C)(C)C)c(F)c3)ccc12` [Example 98, (R,E)-4-(tert-butylamino)-N-(4-(8-(4-chloro-2-(1-hydroxyethyl)-1,6-dimethyl-1H-benzo[d]imidazol-5-yl)indolizine-3-carbonyl)-2,6-difluorophenyl)but-2-enamide], for which the IC50 in experiment [1] stood at 41 nM; with MIA PaCa-2 cells (Homo sapiens, MIA PaCa-2, 72 h), 42 nM. Further, in experiment [2], the binding rate entry is given as “A (A binding rate of 80% or more is rated “A”)”.

As to `COc1cc2c(ncn2C)c(Cl)c1-c1cccn2c(C(=O)c3cc(F)c(NC(=O)/C=C/CN[C@H]4CC[C@H](OC)CC4)c(F)c3)ccc12` (single isomer, unassigned) [Example 41-1, (E)-N-(4-(8-(4-chloro-6-methoxy-1-methyl-1H-benzo[d]imidazol-5-yl)indolizine-3-carbonyl)-2,6-difluorophenyl)-4-(((1r,4r)-4-methoxycyclohexyl)amino)but-2-enamide], the half-maximal inhibitory concentration (IC50) in experiment [1] was 52 nM; in the experiment with MIA PaCa-2 cells (Homo sapiens, MIA PaCa-2, 72 h), 32 nM. Also, the binding rate entry in experiment [2] is “A (A binding rate of 80% or more is rated “A”)”.

In the case of `Cc1nc2cc(-c3cccn4c(C(=O)c5cc(F)c(NC(=O)/C=C/CNC67CCC(F)(CC6)C7)c(F)c5)ccc34)c(C(F)(F)F)cc2n1C` [Example 84, (E)-N-(4-(8-(1,2-dimethyl-6-(trifluoromethyl)-1H-benzo[d]imidazol-5-yl)indolizine-3-carbonyl)-2,6-difluorophenyl)-4-((4-fluorobicyclo[2.2.1]heptan-1-yl)amino)but-2-enamide], the IC50 in experiment [1] is 91 nM; with MIA PaCa-2 cells (Homo sapiens, MIA PaCa-2, 72 h) it was 120 nM. Besides, the binding rate result in experiment [2] is “A (A binding rate of 80% or more is rated “A”)”.

Turning to `CO[C@H](C)c1nc2c(Cl)c(-c3cccn4c(C(=O)c5cc(F)c(NC(=O)/C=C/CN[C@H]6CC[C@H](OC)CC6)c(F)c5)ccc34)c(C)cc2n1C` (single isomer, unassigned) [Example 47], the values for the half-inhibitory concentration (IC50) (in experiment [1]; in the experiment with MIA PaCa-2 cells) were 16 nM and 75 nM, respectively. Besides, the binding rate entry in experiment [2] is given as “A (A binding rate of 80% or more is rated “A”)”.

In the case of `Cc1nc2cc(-c3cccn4c(C(=O)c5cc(F)c(NC(=O)/C=C/CNC6(C)CC6)c(F)c5)ccc34)c(C(F)(F)F)cc2n1C` [Example 62, (E)-N-(4-(8-(1,2-dimethyl-6-(trifluoromethyl)-1H-benzo[d]imidazol-5-yl)indolizine-3-carbonyl)-2,6-difluorophenyl)-4-((1-methylcyclopropyl)amino)but-2-enamide], the IC50 is 66 nM in experiment [1] and 140 nM in the experiment on MIA PaCa-2 cells (Homo sapiens, MIA PaCa-2, 72 h). The binding rate result in experiment [2] is “A (A binding rate of 80% or more is rated “A”)”.

Turning to `CO[C@H]1CC[C@H](NC/C=C/C(=O)Nc2c(F)cc(C(=O)c3cc(C)c4c(-c5c(C)cc6c(nc(C)n6C)c5Cl)cccn34)cc2F)CC1` [Example 87, (E)-N-(4-(8-(4-chloro-1,2,6-trimethyl-1H-benzo[d]imidazol-5-yl)-1-methylindolizine-3-carbonyl)-2,6-difluorophenyl)-4-(((1r,4r)-4-methoxycyclohexyl)amino)but-2-enamide], the IC50 in experiment [1] turned out to be 35 nM; in the experiment on MIA PaCa-2 cells (Homo sapiens, MIA PaCa-2, 72 h), 140 nM. Also, in experiment [2], the binding rate result is “A (A binding rate of 80% or more is rated “A”)”.

In the case of `COc1c(-c2cc(F)cn3c(C(=O)c4cc(F)c(NC(=O)/C=C/CNC5(C)CC5)c(F)c4)cnc23)c(C(F)(F)F)cc2c1nc(C)n2C` (single isomer, unassigned) [Example 112-2, (E)-N-(2,6-difluoro-4-(6-fluoro-8-(4-methoxy-1,2-dimethyl-6-(trifluoromethyl)-1H-benzo[d]imidazol-5-yl)imidazo[1,2-a]pyridine-3-carbonyl)phenyl)-4-((1-methylcyclopropyl)amino)but-2-enamide], the IC50 in experiment [1] came out at 362 nM; in the experiment with MIA PaCa-2 cells, 532 nM. Moreover, in experiment [2], the binding rate result is recorded as “A (A binding rate of 80% or more is rated “A”)”.

In the case of `CO[C@H]1CC[C@H](NC/C=C/C(=O)Nc2c(F)cc(C(=O)c3cc(-c4cnn(C)c4)c4c(-c5c(C)cc6c(nc(C)n6C)c5Cl)cccn34)cc2F)CC1` [Example 101, (E)-N-(4-(8-(4-chloro-1,2,6-trimethyl-1H-benzo[d]imidazol-5-yl)-1-(1-methyl-1H-pyrazol-4-yl)indolizine-3-carbonyl)-2,6-difluorophenyl)-4-(((1r,4r)-4-methoxycyclohexyl)amino)but-2-enamide], the concentration for half-maximal inhibition (IC50) in experiment [1] came out at 54 nM; in the experiment with MIA PaCa-2 cells (Homo sapiens, MIA PaCa-2, 72 h) it was 93 nM. Further, the binding rate entry in experiment [2] is listed as “A (A binding rate of 80% or more is rated “A”)”.

`CCCc1cc(C(=O)c2cc(F)c(NC(=O)/C=C/CN[C@H]3CC[C@H](OC)CC3)c(F)c2)n2cccc(-c3c(C)cc4c(nc(C)n4C)c3Cl)c12` [Example 97, (E)-N-(4-(8-(4-chloro-1,2,6-trimethyl-1H-benzo[d]imidazol-5-yl)-1-propylindolizine-3-carbonyl)-2,6-difluorophenyl)-4-(((1r,4r)-4-methoxycyclohexyl)amino)but-2-enamide]: the IC50 turned out to be 44 nM in experiment [1] and 320 nM with MIA PaCa-2 cells (Homo sapiens, MIA PaCa-2, 72 h). For the same compound, the binding rate result in experiment [2] is recorded as “A (A binding rate of 80% or more is rated “A”)”.
